PubChem BioAssay (NCI)
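Compound exposure: 48 hours, 5 concentrations, 96-well plates. At the GI50, growth is halved. At the TGI there is no net growth.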

Experiments:
Experiment in all cases: NCI-60 cell line screen, 48 h
[1] = tested on: MDA-MB-435
[2] = tested on: SK-MEL-2 melanoma
[3] = tested on: ACHN renal
[4] = tested on: UO-31 renal
[5] = tested on: 786-0 renal
[6] = tested on: IGROV1 ovarian
[7] = tested on: DU-145 prostate
[8] = tested on: HOP-62 NSCLC
[9] = tested on: UACC-257 melanoma
[10] = tested on: HS 578T breast

Compound | TGI [1] [µM] | TGI [2] [µM] | TGI [3] [µM] | TGI [4] [µM] | TGI [5] [µM] | TGI [6] [µM] | TGI [7] [µM] | TGI [8] [µM] | TGI [9] [µM] | TGI [10] [µM] | GI50 [1] [µM] | GI50 [2] [µM] | GI50 [3] [µM] | GI50 [4] [µM] | GI50 [6] [µM] | GI50 [10] [µM] | GI50 [7] [µM] | GI50 [8] [µM] | GI50 [9] [µM]
CC(=O)NNC(=S)/N=C/c1c(O)cc(C)oc1=O | > 100 | > 100 | > 100 | > 100 | > 100 | > 100 | > 100 | > 100 | > 100 | – | – | – | – | – | – | – | – | – | –
COc1ccc2c(c1)CCCN1CCc3cc(OC)c(OC)cc3C21 (centres undefined) | > 100 | – | > 100 | > 100 | > 100 | > 100 | > 100 | > 100 | > 100 | – | – | – | – | – | – | – | – | – | –
Cn1c2ccccc2n2c(=O)c3cccnc3c(C#N)c12 | > 100 | – | > 100 | – | > 100 | – | > 100 | > 100 | > 100 | – | – | – | – | – | – | – | – | – | –
Nc1nc(N)c2nnn(C[C@H]3CC[C@@H](CO)C3)c2n1 | > 100 | – | > 100 | > 100 | > 100 | > 100 | > 100 | > 100 | > 100 | > 100 | – | – | – | – | – | – | – | – | –
O=C1CCCCC[C@]12SC[C@H]1CON=C12 | 39.5 | – | > 100 | > 100 | > 100 | > 100 | > 100 | – | > 100 | > 100 | – | – | – | – | – | – | – | – | –
C/C(=N\O)c1cccc(Nc2nc3ccccc3c3occc23)c1 | 24 | – | 22.8 | – | 26.7 | – | 27.8 | 32.8 | 2.59 | 32.8 | – | – | – | – | – | – | – | – | –
O=C(NCCCCNCCCNC(=O)c1cc(-c2ccccc2)nc2ccccc12)c1cc(-c2ccccc2)nc2ccccc12 | 3.17 | 3.49 | 3.3 | 3.21 | 3.03 | 2.88 | 3.8 | 3.02 | 3.36 | – | – | – | – | – | – | – | – | – | –
CCn1c(-c2ccc(C)cc2)cs/c1=N\C(P(=O)(O)O)P(=O)(O)O | > 100 | – | > 100 | > 100 | > 100 | > 100 | > 100 | > 100 | > 100 | > 100 | – | – | – | – | – | – | – | – | –
COc1ccc(Cl)cc1NC(=O)c1c(NC(=O)C(F)(F)C(F)(F)F)sc2c1CCCCC2 | > 100 | 5.71 | 7.11 | 5.75 | – | > 100 | > 100 | 7 | – | 7.54 | 2.52 | 1.07 | 1.76 | 1.94 | 2.81 | 1.37 | 2.72 | 2.49 | –
CC(=O)O[C@H]1C(=O)[C@@]2(C)[C@H]([C@H](OC(=O)c3ccccc3)[C@]3(O)C[C@H](OC(=O)[C@H](O)[C@@H](NC(=O)CC(C)C)c4ccccc4)C(C)=C1C3(C)C)[C@]1(OC(C)=O)CO[C@@H]1C[C@@H]2O | – | > 10 | > 10 | > 10 | > 10 | > 10 | 0.188 | > 10 | > 10 | 0.00822 | – | – | – | – | – | – | – | – | –
Oc1ccc2ccccc2c1N=Nc1ccccn1 | > 100 | > 82.5 | > 100 | > 25.8 | – | 8.14 | > 100 | > 100 | 8.02 | > 52.8 | 2.11 | 3.08 | 0.423 | 0.306 | 0.349 | 7.52 | 1.83 | 1.41 | 2.01
Nc1nc(N)c2nc(-c3ccco3)cnc2n1 | – | – | > 100 | > 100 | > 100 | > 100 | – | > 100 | > 100 | – | – | – | – | – | – | – | – | – | –
COc1ccc(C2SCC(=O)N2NC(=O)C(C)Oc2ccccc2Cl)cc1 (centres undefined) | > 100 | 50 | > 100 | > 100 | > 100 | > 100 | > 100 | – | > 100 | > 100 | – | – | – | – | – | – | – | – | –
COc1cc2cc(C(=O)N3CC(CCl)c4c3cc(N(C)C)c3ccccc43)[nH]c2c(OC)c1OC (centres undefined) | – | < 0.01 | > 100 | – | – | – | 0.492 | 0.0529 | – | 0.135 | – | – | – | – | – | – | – | – | –
CC1(C)N=C(/C=N/O)C(C)(C)N1O | > 100 | > 100 | > 100 | > 100 | > 100 | > 100 | > 100 | > 100 | – | > 100 | – | – | – | – | – | – | – | – | –
Cc1cc(O)c(/C=N/c2nc(-c3cccc([N+](=O)[O-])c3)cs2)c(=O)o1 | > 100 | > 100 | > 100 | > 100 | > 100 | > 100 | > 100 | > 100 | > 100 | – | – | – | – | – | – | – | – | – | –
O=C(O)c1cc(O)c2c(c1)Cc1cccc(O)c1C2=O | > 100 | – | 34.8 | 34.2 | 92.2 | – | > 100 | 43 | 67 | – | – | – | – | – | – | – | – | – | –
O=C(CN1CCOCC1)CC(O)(C(F)(F)F)C(F)(F)F | > 100 | > 100 | > 100 | > 100 | > 100 | > 100 | > 100 | – | > 100 | > 100 | – | – | – | – | – | – | – | – | –
O=C1CC(c2ccc[nH]2)=NN1c1ccccc1 | > 100 | > 100 | > 100 | > 100 | > 100 | – | > 100 | > 100 | > 100 | – | – | – | – | – | – | – | – | – | –
CCc1n[nH]c(=O)n1NC(=O)c1ccccc1C(=O)O | > 100 | > 100 | > 100 | > 100 | > 100 | > 100 | > 100 | > 100 | > 100 | – | – | – | – | – | – | – | – | – | –
CCOC(=O)c1c(C)[nH]c(/C=C2\N=C(c3ccc[nH]3)C=C2OC)c1C | 1.15 | – | 1.29 | 0.058 | – | 1.09 | 1.6 | 1.17 | 1.46 | 0.925 | 0.0186 | – | 0.0321 | 0.0239 | 0.0305 | 0.0577 | 0.0372 | 0.0406 | 0.0402
CCN(CC)CCSc1nc2c(c(=N)n1-c1ccccc1)c(=S)n(-c1ccccc1)c(=S)n2-c1ccccc1 | 3.77 | 20.4 | 3.16 | – | 1.55 | 3.24 | 3.05 | 8.32 | 3.15 | > 90.9 | – | – | – | – | – | – | – | – | –
